The experiment has as its system Plasmodium falciparum. Put plainly: GSK_TCMDC: Inhibition of Plasmodium falciparum 3D7 in whole erythrocytes, using parasite LDH activity as an index of growth. Format: functional, organism-based. To be noted: Plasmodium falciparum, 3D7.
Turning to `COc1ccc2nccc(N/N=C/c3cccc([N+](=O)[O-])c3)c2c1`, the XC50 turned out to be 398 nM.
With `CN(C)c1ccc(/C=C2\S/C(=N\c3ccccc3)N(c3ccccc3)C2=O)cc1[N+](=O)[O-]` the figure was 778 nM.
With `Cc1ccc2nc(C)cc(N/N=C/c3ccc([N+](=O)[O-])cc3)c2c1` the figure was 793 nM.
For `CCn1ncc2c(NC3CCOCC3)c(CNC(=O)c3ccnn3C)c(C)nc21`, the XC50 was determined as 533 nM.
The result for `N=C(N)c1ccc(C=Cc2ccc(C(=N)N)cc2O)cc1` reads 103 nM; that for `COc1ccc(Oc2ccc(Nc3ccnc4ccc(C(F)(F)F)cc34)cc2)cc1OC`, 1060 nM.
With `COc1ccc2[nH]ccc(=NN=Cc3cccc(Cl)c3)c2c1` the figure was 193 nM.
Consider `Cc1cc(NCCC(=O)NCc2cccc(F)c2)nc(NCCc2ccc(F)cc2)n1`, for which the XC50 worked out at 1750 nM.
The result for `c1ccc(CNCc2cccc(-c3cccc(-c4nc5ccccc5[nH]4)c3)c2)cc1` reads 569 nM; that for `CCn1cc(CN2C(=O)C(c3ccccc3)(c3ccccc3)N=C2N)cn1`, 820 nM; that for `CCC(CC)NCc1c(O)ccc2c(CNC(CC)CC)c(O)ccc12`, 390 nM.
In turn, `Cc1noc(C)c1-c1cccc(CNCc2ccc(-c3ccc(-c4nc5cccc(C)c5[nH]4)cc3)cc2)c1` gave an XC50 of 239 nM.
For the compound `O=C(CCCCCNC(=O)c1ccc(O)c(-c2ccc(Cl)c(Cl)c2)c1)NCc1cccc(C(F)(F)F)c1`, the XC50 stood at 731 nM.
The result for `COc1ccc(C(=O)C2CC2CN(C)CC(O)c2cc(C)c(OC)cc2C)cc1` (centres undefined) reads 968 nM; that for `COc1ccc2[nH]c(C)cc(=NN=Cc3cc(C)ccc3O)c2c1`, 143 nM.
`O=C(NC(=S)NCc1ccncc1)c1ccccc1`: the XC50 was 1690 nM.
As to `CCOc1ccc(-c2nonc2NC(=O)c2ccc(Cl)cc2)cc1OCC`, the XC50 came to 988 nM.
In turn, `COc1cc(OC)cc(-c2nnc(Sc3ccc(C#N)c([N+](=O)[O-])c3)n2C)c1` came in with an XC50 of 937 nM.
With `O=C(C1CCN(C(c2ccccc2)c2ccc(Cl)c(Cl)c2)CC1)N1CC=CC1` (centres undefined) the figure was 725 nM; with `Cc1noc(C)c1-c1cccc(CNCc2ccc(-c3cccc(-c4nc5cc(F)ccc5[nH]4)c3)cc2)c1`, 545 nM; with `COc1ccc(CCNC(=O)c2ccc(-n3cc(NC(=O)c4cccnc4)cn3)cc2)cc1OC`, 1070 nM.
`COc1ccc(CNCc2cccc(-c3cccc(-c4nc5ccccc5[nH]4)c3)c2)cc1`: the XC50 turned out to be 368 nM.
The result for `CC(C)(C)c1cc(C(=O)N2CCN(c3nccnc3C#N)CC2)n(Cc2ccccc2)n1` reads 758 nM; that for `COCCN1CCN(Cc2ccc(-c3ccc(-c4nc5cccc(C)c5[nH]4)s3)cc2)CC1`, 859 nM.
With `O=C(Nc1ccc(OCc2ccccc2)cc1)c1nc2ccccc2nc1Cl` the figure was 254 nM; with `Cc1ccc(NC(=O)c2ccc3ncccc3c2)cc1OC1CCN(Cc2ccsc2)CC1`, 930 nM; with `C#CCOc1ccc2ccccc2c1CNCCCCCCNCc1c(OCC#C)ccc2ccccc12`, 780 nM.
With `O=C(Cc1cccc(OCCCN(Cc2cccc(C(F)(F)F)c2Cl)CC(c2ccccc2)c2ccccc2)c1)NCc1ccco1`, the XC50 was determined as 937 nM.
The result for `CCCCCCN1CCCN(Cc2ccc(C(=O)Nc3ccc(C(C)C)cc3)cc2)CC1` reads 834 nM.
In turn, `CCCCCCNC(=O)C1Cc2c([nH]c3cc(Cl)ccc23)C2(CCN(CCC)CC2)N1` (centres undefined) showed an XC50 of 880 nM.
With `Cc1nc2nc(N)nc(N)c2c(C)c1Cc1ccccc1Cl` the figure was 112 nM; with `CC(C)CNCc1ccc(-c2ccc(CN(C(=O)NCCc3ccccc3)C3CCN(Cc4ccccc4)CC3)cc2)cc1`, 699 nM; with `CN(C)c1ccc(-c2csc(C(=O)NC3CCCCN(CCC(C)(C)C)C3)c2)cc1` (centres undefined), 1050 nM.
Regarding `CC[C@H](C)CNC(=O)c1ccnc(-c2ccc(CN3CCC(N4CCCC4)CC3)cc2)c1`, the XC50 came out at 891 nM.
The result for `CCOC(=O)N1CCN(CCCCNc2c3ccc(Cl)cc3nc3ccc(OC)cc23)CC1` reads 121 nM; that for `COc1ccc(Cc2cnc3nc(N)nc(N)c3c2C)cc1OC`, 9.41 nM; that for `N[C@@H](Cc1cc(I)c(Oc2ccc(O)c(C(=O)O)c2)c(I)c1)C(=O)O`, 991 nM.
Turning to `CN(C)Cc1cccc(-c2ccc(NC(=O)c3ccc4c(=O)n(CCN5CCCCC5)cnc4c3)cc2)c1`, the XC50 amounted to 650 nM.
The result for `Cn1cccc1CCNCc1ccc(-c2cccc(-c3nc4ccccc4[nH]3)c2)cc1` reads 1210 nM.
The result for `O=C(CCn1c2ccccc2c2ccccc21)NN=Cc1ccco1` reads 588 nM; that for `CCOc1ccc2ccccc2c1C(=O)Nc1cc(C)nn1-c1nc(C)cc(=O)[nH]1`, 1010 nM.
For the compound `CC(C)c1ccc(CN2CCCCC(NC(=O)c3cc(-c4ccccc4Cl)cs3)C2)cc1` (centres undefined), the XC50 came out at 1120 nM.
Consider `CC(=O)N1CCC(C(=O)Nc2ccc(-c3cccc(-c4nc5cc(C(F)(F)F)ccc5[nH]4)c3)cc2)CC1`, for which the XC50 worked out at 239 nM.
The result for `CN(c1ncc(-c2cccc(CNCc3ccccc3O)c2)cn1)C1CCCCC1` reads 822 nM; that for `CC(=O)Oc1cc(OCc2ccccc2)c(OC(C)=O)c(OCc2ccccc2)c1`, 407 nM.
The result for `CC(C)CNCc1cccc(-c2cccc(CNc3ccc4ncccc4c3)c2)c1` reads 947 nM.
With `Cc1cc(NCc2ccccc2)nc(NCc2ccccc2)n1`, the XC50 turned out to be 974 nM.
`CC(C)CCNC(=O)C1Cc2c([nH]c3ccc(Br)cc23)C2(CCN(CCc3ccccc3)CC2)N1` (centres undefined) showed an XC50 of 688 nM.
With `Cc1ccc(CC(C)NC[C@H](O)c2cccc(Cl)c2)cc1` (some centres undefined) the figure was 860 nM; with `CC[C@H]1CN2CC[C@@H]1C[C@H]2[C@H](O)c1cc(-c2ccc(Cl)c(Cl)c2)nc2ccc(O)cc12`, 262 nM.
The result for `CCOC(=O)c1c(C)n(-c2ccccc2)c2ccc(O)cc12` reads 475 nM; that for `COc1cc(Cc2cnc(N)nc2N)c2c(c1OC)OC(C)(C)C=C2`, 1190 nM.
With `Cc1nnsc1C(=O)Nc1ccc(-c2cccc(-c3nc4cc(C(F)(F)F)ccc4[nH]3)c2)cc1` the figure was 838 nM.
`Nc1nc(N)c(-c2ccccc2)c(=O)[nH]1` had an XC50 of 1000 nM.
With `CN(C)CCCn1cc(C(=O)OC2CC3CCC(C2)N3C)c2cc(-c3ccccc3)ccc21` (centres undefined) the figure was 837 nM; with `O=C(/C=C/c1ccccc1Cl)Nc1ccc(Br)c(OCCN2CCN(CCN3CCCC3)CC2)c1`, 653 nM; with `COc1ccc(NC(=O)Nc2ccc(-c3cccc(-c4nc5cccc(C)c5[nH]4)c3)cc2)cc1`, 142 nM.
The result for `N#Cc1ccc(CN2CCC(Oc3ccc(NC(=O)c4cccs4)cc3Cl)CC2)cc1` reads 577 nM; that for `Cc1ccc(C(C#N)c2ccc3c(C(F)(F)F)cc(C(F)(F)F)nc3n2)cc1` (centres undefined), 700 nM; that for `N=C(N)c1ccc(OCc2cccc(COc3ccc(C(=N)N)cc3I)c2)c(I)c1`, 337 nM.
`CCN(CC)CCN1C(=O)c2oc3ccc(F)cc3c(=O)c2C1c1cccc(Cl)c1` (centres undefined) showed an XC50 of 531 nM.
Turning to `COc1cc(C(=O)N2CCOC(CCN3CCC4c5ccccc5CC43)(c3ccc(Cl)c(Cl)c3)C2)cc(OC)c1OC` (centres undefined), the XC50 was 529 nM.
`CCNc1cc(C)nc(Nc2ccc(NC(=O)c3ccc(OC)c(OC)c3)cc2)n1`: the XC50 was determined as 1070 nM.
With `CN(CCc1ccccc1)c1ncc(-c2cccc(CNCCC3CCCN3C)c2)cn1` (centres undefined) the figure was 870 nM.
For the compound `COc1cc2c(cc1OC)C(c1ccc(Br)cc1)CN(C)CC2` (centres undefined), the XC50 amounted to 943 nM.
Regarding `O=C(Nc1cccc([N+](=O)[O-])c1)Nc1cccc(C(F)(F)F)c1`, the XC50 was 767 nM.
As to `CC(=O)Nc1ncc(C(=O)Nc2cccc(-c3cccc(-c4nc5cc(F)ccc5[nH]4)c3)c2)s1`, the XC50 is 454 nM.
With `Nc1ncc(-c2ccc(F)c(Cl)c2)c(N)n1` the figure was 1230 nM.
With `COCCn1c(-c2cccc(Cl)c2)nn(-c2ccc([N+](=O)[O-])cc2Cl)c1=S` the figure was 737 nM; with `CC(=O)N(Cc1cccc(-c2cccc(CNCc3ccc4c(c3)OCO4)c2)c1)C1CCN(Cc2ccccc2)CC1`, 839 nM.
With `COc1ccc(NS(=O)(=O)c2cccc(C(=O)Nc3ccc(C(F)(F)F)cc3)c2)cc1N1CCN(CC(C)C)CC1` the figure was 838 nM; with `OC(COCc1ccc(-c2ccccc2)cc1)CN1CCCCC1` (centres undefined), 269 nM.
`O=C(Nc1ccc(-c2oc(C(=O)NCCc3cccc(Cl)c3)cc2-c2ccncc2)cc1)Nc1cccc(Cl)c1` showed an XC50 of 722 nM.
The result for `Cc1noc(C)c1CN1Cc2ccccc2OC2(CCN(Cc3c[nH]c4cnccc34)CC2)C1` reads 1070 nM; that for `COc1ccccc1CCNc1nc(C)cc(NCCC(=O)NCCOc2ccccc2)n1`, 1370 nM; that for `O=C(Nc1cccc(-c2cccc(-c3nc4ccccc4[nH]3)c2)c1)Nc1ccc(Cl)c(Cl)c1`, 131 nM.
On to `CN1C(=O)C(=O)N(CCCCCONC(=N)N)C1=S`, for which the XC50 amounted to 197 nM.
With `COCC(C)n1c(C)cc(C(=O)CSc2nnc(Nc3ccccc3)s2)c1C` (centres undefined) the figure was 736 nM; with `O=C(C=Cc1ccc(Cl)c(Cl)c1)NCCCCCN1CCC(CCNC(=O)c2ccc3c(c2)OCO3)CC1`, 693 nM; with `O=C(Nc1ccc(-c2cccc(-c3nc4cc(C(F)(F)F)ccc4[nH]3)c2)cc1)c1ccoc1`, 829 nM.
The result for `COc1ccc2nccc([C@@H](O)CN3CCC(NCC(=O)Nc4cc(F)cc(F)c4)CC3)c2n1` reads 912 nM; that for `COc1ccc(Nc2nc(=Nc3ccccc3)nc(NN=Cc3cc(Cl)ccc3O)[nH]2)cc1`, 647 nM; that for `CC(C)c1ccc(NC(=O)NCC2CCCN(CCCCCNC(=O)/C=C/c3ccc(Cl)c(Cl)c3)C2)cc1` (centres undefined), 806 nM.
With `Cc1cccc2nc(-c3ccc(-c4ccc(NC(=O)Nc5ccc(Cl)c(Cl)c5)cc4)s3)[nH]c12` the figure was 176 nM; with `Cn1cncc1C(=O)Nc1cccc(-c2ccc(-c3nc4cc(F)ccc4[nH]3)s2)c1`, 872 nM; with `CCOc1ccc(-c2nonc2NC(=O)c2ccccc2Cl)cc1OCC`, 742 nM.
Turning to `Cc1cc(NC2CCCC2)nc(Nc2ccccc2F)n1`, the XC50 was found to be 926 nM.
With `O=C(NCCc1ccccc1)N(Cc1ccccc1-c1cccc(CNCCc2ccccc2)c1)C1CCN(Cc2ccccc2)CC1` the figure was 625 nM.
The result for `Clc1ccc2c(N3CCCNCC3)ccnc2c1` reads 482 nM.
